Measurements taken from ChEMBL document CHEMBL3856236, “Discovery of 6-Diazo-5-oxo-l-norleucine (DON) Prodrugs with Enhanced CSF Delivery in Monkeys: A Potential Treatment for Glioblastoma” (J Med Chem, 2016).
Calls of active or inactive are those of the source. The calls are words filed in the database; no cut-off is given here.

Experiments:
[1] = Metabolic stability in monkey plasma assessed as compound remaining at 10 uM at 60 mins by LC-MS/MS analysis; type: ADME, cell-free, Macaca mulatta; conditions: rhesus monkey, read-out: Stability
[2] = Chemical stability of the compound at 10 uM at pH 7.4 after 1 hr by LC-MS/MS analysis; type: physicochemical; conditions: buffer; for remaining at 1 h, 10 µM: pH 7.4, read-out: Stability; for Stability: pH 7.4, 1 h, 10 µM
[3] = Metabolic stability in human plasma assessed as compound remaining at 10 uM at 60 mins by LC-MS/MS analysis; type: ADME, cell-free; conditions: read-out: Stability
[4] = Metabolic stability in mouse plasma assessed as compound remaining at 10 uM at 60 mins by LC-MS/MS analysis; type: ADME, cell-free; conditions: read-out: Stability
[5] = Cmax in pig-tail monkey plasma assessed as 6-Diazo-5-oxo-L-norleucine levels at 3.6 mg/kg, iv by LC-MS analysis; type: ADME, organism-based; parameters: dose 3.6 mg/kg, route intravenous; conditions: macaca nemestrina, in vivo
[6] = AUC (0 to t) in pig-tail monkey plasma assessed as 6-Diazo-5-oxo-L-norleucine levels at 3.6 mg/kg, iv measured at 0.25 to 6 hrs post dose by LC-MS analysis; type: ADME, organism-based; parameters: time upper 6 hr, dose 3.6 mg/kg, time lower 0.25 hr, route intravenous; conditions: macaca nemestrina, in vivo
[7] = Tmax in pig-tail monkey plasma assessed as 6-Diazo-5-oxo-L-norleucine levels at 3.6 mg/kg, iv by LC-MS analysis; type: ADME, organism-based; conditions: macaca nemestrina, in vivo
[8] = Prodrug activation in pig-tail monkey CSF assessed as 6-Diazo-5-oxo-L-norleucine levels at 3.6 mg/kg, iv measured at 30 mins post dose by LC-MS analysis; type: organism-based, Cerebrospinal fluid; conditions: macaca nemestrina, in vivo, 0.5 h
[9] = Cmax in C57BL/6 mouse brain assessed as 6-Diazo-5-oxo-L-norleucine levels at 1.8 mg/kg administered via oral gavage by LC-MS analysis; type: ADME, organism-based; parameters: dose 1.8 mg/kg, route oral; conditions: in vivo
[10] = AUC (0 to t) in C57BL/6 mouse brain assessed as 6-Diazo-5-oxo-L-norleucine levels at 1.8 mg/kg administered via oral gavage measured at 10 to 90 mins post dose by LC-MS analysis; type: ADME, organism-based; conditions: in vivo
[11] = Tmax in C57BL/6 mouse plasma assessed as 6-Diazo-5-oxo-L-norleucine levels at 1.8 mg/kg administered via oral gavage by LC-MS analysis; type: ADME, organism-based; conditions: in vivo
[12] = Ratio of drug level in C57BL/6 mouse brain to plasma assessed as 6-Diazo-5-oxo-L-norleucine levels at 1.8 mg/kg administered via oral gavage; type: ADME, organism-based
[13] = Cmax in C57BL/6 mouse plasma assessed as 6-Diazo-5-oxo-L-norleucine levels at 1.8 mg/kg administered via oral gavage by LC-MS analysis; type: ADME, organism-based; parameters: dose 1.8 mg/kg, route oral; conditions: in vivo
[14] = AUC (0 to t) in C57BL/6 mouse plasma assessed as 6-Diazo-5-oxo-L-norleucine levels at 1.8 mg/kg administered via oral gavage measured at 10 to 90 mins post dose by LC-MS analysis; type: ADME, organism-based; conditions: in vivo
[15] = Antitumor activity against human U87 cells xenografted in RHFoxn1nu mouse assessed as tumor volume at 0.8 mg/kg, ip qd for 6 days measured on day 2 post dose (reference value: 401 mm3); type: functional, U-87MG ATCC
Mus musculus [16] = assay: In vivo inhibition of glutamine metabolism in RHFoxn1nu mouse xenografted with human U87 cells assessed as accumulation of endogenous glutamine in tumor at 0.8 mg/kg, ip administered as single dose measured after 2 hrs by HPLC-MS analysis; type: functional, organism-based; conditions: U-87MG ATCC
[17] = Antitumor activity against human U87 cells xenografted in RHFoxn1nu mouse assessed as tumor volume at 0.8 mg/kg, ip qd for 6 days measured on day 4 post dose (reference value: 454 mm3); type: functional, U-87MG ATCC
Mus musculus [18] = assay: Toxicity in RHFoxn1nu mouse xenografted with human U87 cells assessed as hunching at 0.8 mg/kg, ip qd for 6 days; type: organism-based, U-87MG ATCC; conditions: in vivo, 144 h
[19] = Tmax in C57BL/6 mouse plasma at 0.8 mg/kg administered via oral gavage by LC-MS analysis; type: ADME, organism-based
[20] = Cmax in C57BL/6 mouse brain at 0.8 mg/kg administered via oral gavage by LC-MS analysis; type: ADME, organism-based; parameters: dose 0.8 mg/kg, route oral; conditions: in vivo
[21] = Antitumor activity against human U87 cells xenografted in RHFoxn1nu mouse assessed as tumor volume at 0.8 mg/kg, ip qd for 6 days measured on day 6 post dose (reference value: 533 mm3); type: functional, U-87MG ATCC
[22] = Cmax in C57BL/6 mouse plasma at 0.8 mg/kg administered via oral gavage by LC-MS analysis; type: ADME, organism-based; parameters: dose 0.8 mg/kg, route oral
Mus musculus [23] = assay: Toxicity in RHFoxn1nu mouse xenografted with human U87 cells assessed as weight loss at 0.8 mg/kg, ip qd for 6 days; type: organism-based, U-87MG ATCC; conditions: in vivo, 144 h
[24] = Ratio of drug level in C57BL/6 mouse brain to plasma at 0.8 mg/kg administered via oral gavage; type: ADME, organism-based; conditions: read-out: BPR
Mus musculus [25] = assay: Toxicity in RHFoxn1nu mouse xenografted with human U87 cells assessed as ptosis at 0.8 mg/kg, ip qd for 6 days; type: organism-based, U-87MG ATCC; conditions: in vivo, 144 h
Mus musculus [26] = assay: Toxicity in RHFoxn1nu mouse xenografted with human U87 cells assessed as lethargy at 0.8 mg/kg, ip qd for 6 days; type: organism-based, U-87MG ATCC; conditions: in vivo, 144 h
[27] = Antitumor activity against human U87 cells xenografted in RHFoxn1nu mouse assessed as reduction in tumor volume at 0.8 mg/kg, ip qd for 6 days measured 2 to 6 days post dose; type: functional, U-87MG ATCC; conditions: U-87 MG
in vivo [28] = conditions: macaca nemestrina, plasma, iv, 1.6 mg/kg
Description: AUC (0 to t) in pig-tail monkey plasma at 1.6 mg/kg, iv measured at 0.25 to 6 hrs post dose by LC-MS analysis

[29] = Antitumor activity against human U87 cells xenografted in RHFoxn1nu mouse assessed as tumor volume at 0.8 mg/kg, ip qd for 6 days measured immediately post dose (reference value: 409 mm3); type: functional, U-87MG ATCC
[30] = Drug uptake in pig-tail monkey CSF at 1.6 mg/kg, iv measured at 30 mins post dose by LC-MS analysis; type: ADME, organism-based, Cerebrospinal fluid; conditions: macaca nemestrina, in vivo, 0.5 h
in vivo [31] = conditions: C57BL/6, mouse, plasma, po, 0.8 mg/kg
Description: AUC (0 to t) in C57BL/6 mouse plasma at 0.8 mg/kg administered via oral gavage measured at 10 to 90 mins post dose by LC-MS analysis

[32] = Cmax in pig-tail monkey plasma at 1.6 mg/kg, iv by LC-MS analysis; type: ADME, organism-based; parameters: dose 1.6 mg/kg, route intravenous; conditions: macaca nemestrina

SMILES: CC(C)C[C@H](N)C(=O)N[C@@H](CCC(=O)C=[N+]=[N-])C(=O)OC(C)C
- remaining at 1 h, 10 µM [1]: 1%
- remaining at 1 h, 10 µM [2]: > 90%
- remaining at 1 h, 10 µM [3]: 1%
- remaining at 1 h, 10 µM [4]: 0%

SMILES: CCOC(=O)[C@@H](N)CCC(=O)C=[N+]=[N-]
- Stability [2]: Unstable

SMILES: CC(C)OC(=O)[C@@H](N)CCC(=O)C=[N+]=[N-]
- Stability [2]: Unstable

SMILES: COC(=O)[C@H](CCC(=O)C=[N+]=[N-])NC(=O)OC(OC(=O)C(C)(C)C)C(C)C (stereo partly drawn)
- Cmax [5]: 2230 nM
- remaining at 1 h, 10 µM [1]: 61%
- AUCt [6]: 5.71 µM·h
- Tmax [7]: 15 min
- Drug metabolism [8]: 1.43 nmol/g
- remaining at 1 h, 10 µM [2]: > 90%
- Cmax [9]: 0.64 nmol/g
- remaining at 1 h, 10 µM [3]: 91%
- AUCt [10]: 0.69 nmol·h/g
- Tmax [11]: 90 min
- BPR [12]: 0.57
- remaining at 1 h, 10 µM [4]: 0%
- Cmax [13]: 1500 nM
- AUCt [14]: 1.22 µM·h

SMILES: CCOC(=O)[C@H](CCC(=O)C=[N+]=[N-])NC(=O)OCc1oc(=O)oc1C
- remaining at 1 h, 10 µM [1]: 0%
- remaining at 1 h, 10 µM [2]: > 90%
- remaining at 1 h, 10 µM [3]: 0%
- remaining at 1 h, 10 µM [4]: 0%

SMILES: CC(C)OC(=O)[C@H](CCC(=O)C=[N+]=[N-])NC(=O)OCOC(=O)C(C)(C)C
- remaining at 1 h, 10 µM [1]: 0%
- remaining at 1 h, 10 µM [2]: > 90%
- remaining at 1 h, 10 µM [3]: 9%
- remaining at 1 h, 10 µM [4]: 0%

SMILES: CCC(OC(=O)N[C@@H](CCC(=O)C=[N+]=[N-])C(=O)OC)OC(=O)C(C)(C)C (stereo partly drawn)
- remaining at 1 h, 10 µM [1]: 75%
- remaining at 1 h, 10 µM [2]: > 90%
- remaining at 1 h, 10 µM [3]: 88%
- remaining at 1 h, 10 µM [4]: 0%

SMILES: CCOC(=O)[C@H](CCC(=O)C=[N+]=[N-])NC(=O)[C@@H](N)CC(C)C
- remaining at 1 h, 10 µM [1]: 1%
- remaining at 1 h, 10 µM [2]: > 90%
- remaining at 1 h, 10 µM [3]: 1%
- remaining at 1 h, 10 µM [4]: 0%

SMILES: Cc1oc(=O)oc1COC(=O)N[C@@H](CCC(=O)C=[N+]=[N-])C(=O)OC(C)C
- remaining at 1 h, 10 µM [1]: 0%
- remaining at 1 h, 10 µM [2]: > 90%
- remaining at 1 h, 10 µM [3]: 0%
- remaining at 1 h, 10 µM [4]: 0%

SMILES: [N-]=[N+]=CC(=O)CC[C@H](N)C(=O)O [6-DIAZO-5-OXO-L-NORLEUCINE]
- Activity [15]: 364 mm3
- inhibition (Mus musculus [16]): Active
- Activity [17]: 256 mm3
- Activity (Mus musculus [18]): Toxic
- Tmax [19]: 10.2 min
- Cmax [20]: 0.56 nmol/g
- Activity [21]: 251 mm3
- Cmax [22]: 2200 nM
- Activity (Mus musculus [23]): 12%
- Kp [24]: 0.46
- Activity (Mus musculus [25]): Toxic
- Activity (Mus musculus [26]): Toxic
- inhibition in vivo at 0.8 mg/kg [27]: > 50%
- AUC(0-t) (in vivo [28]): 42.7 µM·h
- Activity [29]: 504 mm3
- Drug uptake [30]: 0.33 nmol/g
- AUC(0-t) (in vivo [31]): 1.25 µM·h
- Cmax [32]: 12600 nM
